Results reported in ChEMBL document CHEMBL1201862, “PubChem BioAssay data set” (2004).
Blank lines part the entries; values can stand above or below the compound they belong to. Activity calls are given as the source filed them.

Assays:
[1] = Luminescence Cell-Based Dose Confirmation HTS to Identify Inhibitors of Platelet Dense Granule Release. [Related pubchem assays: 1663 (Primary HTS), 1678 (Summary of Project)]; assay type: functional
[2] = molecular target: Luciferin 4-monooxygenase (Photinus pyralis, UniProt P08659); assay: firefly luciferase enzyme inhibitors, dose response, biochemical, luminescence (AID 1891)
Chain of Luciferin 4-monooxygenase (P08659 whole entry, the tested form may be a part): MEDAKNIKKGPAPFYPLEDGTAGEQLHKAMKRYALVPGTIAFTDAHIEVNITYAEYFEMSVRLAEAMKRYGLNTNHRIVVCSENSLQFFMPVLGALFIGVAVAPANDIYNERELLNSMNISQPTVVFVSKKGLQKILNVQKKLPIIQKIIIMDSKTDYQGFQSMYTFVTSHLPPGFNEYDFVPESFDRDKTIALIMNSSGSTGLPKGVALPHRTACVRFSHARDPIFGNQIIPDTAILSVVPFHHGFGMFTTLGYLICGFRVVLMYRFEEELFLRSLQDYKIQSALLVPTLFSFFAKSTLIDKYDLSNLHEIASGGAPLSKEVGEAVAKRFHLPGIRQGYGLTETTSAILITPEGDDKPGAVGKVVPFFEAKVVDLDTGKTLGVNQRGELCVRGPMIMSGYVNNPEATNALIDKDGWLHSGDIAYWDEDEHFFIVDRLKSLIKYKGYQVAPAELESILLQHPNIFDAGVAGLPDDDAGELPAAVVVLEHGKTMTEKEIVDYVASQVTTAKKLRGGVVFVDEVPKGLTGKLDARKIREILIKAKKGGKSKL

[3] = molecular target: T1, Carboxy-terminal domain RNA polymerase II polypeptide A small phosphatase 1 (Homo sapiens, UniProt Q9GZU7); assay: inhibitors of CTDSP1, concentration-response testing, biochemical assay, absorbance-based, actives from ultra-high-throughput screening (AID 540297); assay type: functional
T1 sequence (Q9GZU7 whole entry): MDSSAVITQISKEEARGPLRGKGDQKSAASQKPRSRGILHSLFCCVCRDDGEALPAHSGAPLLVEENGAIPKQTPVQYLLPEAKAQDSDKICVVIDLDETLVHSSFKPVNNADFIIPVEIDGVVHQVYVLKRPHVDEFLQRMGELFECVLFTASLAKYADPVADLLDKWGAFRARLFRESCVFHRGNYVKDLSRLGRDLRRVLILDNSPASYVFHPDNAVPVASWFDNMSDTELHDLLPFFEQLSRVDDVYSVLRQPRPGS

[4] = molecular target: FAD-linked sulfhydryl oxidase ALR (Homo sapiens, UniProt P55789); assay: inhibitors of human ALR sulfhydryl oxidase, dose response, biochemical, H2O2 detection, luminescence, cherry-pick (AID 493248)
Chain of FAD-linked sulfhydryl oxidase ALR (P55789 whole entry): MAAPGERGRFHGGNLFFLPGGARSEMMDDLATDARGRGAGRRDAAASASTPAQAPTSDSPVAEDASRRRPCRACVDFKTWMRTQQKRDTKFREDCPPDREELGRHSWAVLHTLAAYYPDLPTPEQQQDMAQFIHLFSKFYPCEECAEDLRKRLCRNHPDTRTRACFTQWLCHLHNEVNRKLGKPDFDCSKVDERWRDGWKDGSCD

[5] = molecular target: Genome polyprotein (dengue virus type 2, UniProt P29990); assay: Dengue-2 NS5 methyltransferase inhibitors, primary screen, biochemical, confirmation dose response (AID 588689); assay type: functional
[6] = molecular target: Large T antigen (Simian virus 40, UniProt P03070); assay type: functional, Betapolyomavirus macacae;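 further: Confirmatory-stage PubChem screen for compounds that inhibit SV40 T antigen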
Chain of Large T antigen (P03070 whole entry, the tested form may be a part): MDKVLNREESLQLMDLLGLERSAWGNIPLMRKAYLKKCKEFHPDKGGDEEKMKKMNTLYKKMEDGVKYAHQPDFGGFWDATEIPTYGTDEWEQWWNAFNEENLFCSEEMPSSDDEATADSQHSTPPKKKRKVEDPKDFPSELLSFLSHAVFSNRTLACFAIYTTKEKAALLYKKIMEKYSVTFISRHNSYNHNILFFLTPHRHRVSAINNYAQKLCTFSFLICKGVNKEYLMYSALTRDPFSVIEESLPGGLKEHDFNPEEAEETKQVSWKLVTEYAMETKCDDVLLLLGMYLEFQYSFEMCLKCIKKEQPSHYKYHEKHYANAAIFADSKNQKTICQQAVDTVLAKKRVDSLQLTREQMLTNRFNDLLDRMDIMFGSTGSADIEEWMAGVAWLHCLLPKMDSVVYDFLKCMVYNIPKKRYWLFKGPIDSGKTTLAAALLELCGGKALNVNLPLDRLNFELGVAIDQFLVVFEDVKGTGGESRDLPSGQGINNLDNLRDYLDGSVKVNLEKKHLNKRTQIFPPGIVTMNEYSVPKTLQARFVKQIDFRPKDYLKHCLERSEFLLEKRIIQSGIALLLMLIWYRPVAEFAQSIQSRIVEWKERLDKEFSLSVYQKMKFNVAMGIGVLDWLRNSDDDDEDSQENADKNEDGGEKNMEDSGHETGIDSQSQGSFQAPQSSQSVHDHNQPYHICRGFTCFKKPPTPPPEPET

[7] = molecular target: T2, Fatty acid synthase (Homo sapiens, UniProt P49327); assay: FAS thioesterase domain inhibitors, dose response, biochemical, kinetic fluorescence intensity (AID 624326); assay type: functional;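 further: rate of fluorescence rise from hydrolysis of a fluorogenic O-methyl fluorescein ester substrate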
T2 sequence (P49327 whole entry, the tested form may be a part): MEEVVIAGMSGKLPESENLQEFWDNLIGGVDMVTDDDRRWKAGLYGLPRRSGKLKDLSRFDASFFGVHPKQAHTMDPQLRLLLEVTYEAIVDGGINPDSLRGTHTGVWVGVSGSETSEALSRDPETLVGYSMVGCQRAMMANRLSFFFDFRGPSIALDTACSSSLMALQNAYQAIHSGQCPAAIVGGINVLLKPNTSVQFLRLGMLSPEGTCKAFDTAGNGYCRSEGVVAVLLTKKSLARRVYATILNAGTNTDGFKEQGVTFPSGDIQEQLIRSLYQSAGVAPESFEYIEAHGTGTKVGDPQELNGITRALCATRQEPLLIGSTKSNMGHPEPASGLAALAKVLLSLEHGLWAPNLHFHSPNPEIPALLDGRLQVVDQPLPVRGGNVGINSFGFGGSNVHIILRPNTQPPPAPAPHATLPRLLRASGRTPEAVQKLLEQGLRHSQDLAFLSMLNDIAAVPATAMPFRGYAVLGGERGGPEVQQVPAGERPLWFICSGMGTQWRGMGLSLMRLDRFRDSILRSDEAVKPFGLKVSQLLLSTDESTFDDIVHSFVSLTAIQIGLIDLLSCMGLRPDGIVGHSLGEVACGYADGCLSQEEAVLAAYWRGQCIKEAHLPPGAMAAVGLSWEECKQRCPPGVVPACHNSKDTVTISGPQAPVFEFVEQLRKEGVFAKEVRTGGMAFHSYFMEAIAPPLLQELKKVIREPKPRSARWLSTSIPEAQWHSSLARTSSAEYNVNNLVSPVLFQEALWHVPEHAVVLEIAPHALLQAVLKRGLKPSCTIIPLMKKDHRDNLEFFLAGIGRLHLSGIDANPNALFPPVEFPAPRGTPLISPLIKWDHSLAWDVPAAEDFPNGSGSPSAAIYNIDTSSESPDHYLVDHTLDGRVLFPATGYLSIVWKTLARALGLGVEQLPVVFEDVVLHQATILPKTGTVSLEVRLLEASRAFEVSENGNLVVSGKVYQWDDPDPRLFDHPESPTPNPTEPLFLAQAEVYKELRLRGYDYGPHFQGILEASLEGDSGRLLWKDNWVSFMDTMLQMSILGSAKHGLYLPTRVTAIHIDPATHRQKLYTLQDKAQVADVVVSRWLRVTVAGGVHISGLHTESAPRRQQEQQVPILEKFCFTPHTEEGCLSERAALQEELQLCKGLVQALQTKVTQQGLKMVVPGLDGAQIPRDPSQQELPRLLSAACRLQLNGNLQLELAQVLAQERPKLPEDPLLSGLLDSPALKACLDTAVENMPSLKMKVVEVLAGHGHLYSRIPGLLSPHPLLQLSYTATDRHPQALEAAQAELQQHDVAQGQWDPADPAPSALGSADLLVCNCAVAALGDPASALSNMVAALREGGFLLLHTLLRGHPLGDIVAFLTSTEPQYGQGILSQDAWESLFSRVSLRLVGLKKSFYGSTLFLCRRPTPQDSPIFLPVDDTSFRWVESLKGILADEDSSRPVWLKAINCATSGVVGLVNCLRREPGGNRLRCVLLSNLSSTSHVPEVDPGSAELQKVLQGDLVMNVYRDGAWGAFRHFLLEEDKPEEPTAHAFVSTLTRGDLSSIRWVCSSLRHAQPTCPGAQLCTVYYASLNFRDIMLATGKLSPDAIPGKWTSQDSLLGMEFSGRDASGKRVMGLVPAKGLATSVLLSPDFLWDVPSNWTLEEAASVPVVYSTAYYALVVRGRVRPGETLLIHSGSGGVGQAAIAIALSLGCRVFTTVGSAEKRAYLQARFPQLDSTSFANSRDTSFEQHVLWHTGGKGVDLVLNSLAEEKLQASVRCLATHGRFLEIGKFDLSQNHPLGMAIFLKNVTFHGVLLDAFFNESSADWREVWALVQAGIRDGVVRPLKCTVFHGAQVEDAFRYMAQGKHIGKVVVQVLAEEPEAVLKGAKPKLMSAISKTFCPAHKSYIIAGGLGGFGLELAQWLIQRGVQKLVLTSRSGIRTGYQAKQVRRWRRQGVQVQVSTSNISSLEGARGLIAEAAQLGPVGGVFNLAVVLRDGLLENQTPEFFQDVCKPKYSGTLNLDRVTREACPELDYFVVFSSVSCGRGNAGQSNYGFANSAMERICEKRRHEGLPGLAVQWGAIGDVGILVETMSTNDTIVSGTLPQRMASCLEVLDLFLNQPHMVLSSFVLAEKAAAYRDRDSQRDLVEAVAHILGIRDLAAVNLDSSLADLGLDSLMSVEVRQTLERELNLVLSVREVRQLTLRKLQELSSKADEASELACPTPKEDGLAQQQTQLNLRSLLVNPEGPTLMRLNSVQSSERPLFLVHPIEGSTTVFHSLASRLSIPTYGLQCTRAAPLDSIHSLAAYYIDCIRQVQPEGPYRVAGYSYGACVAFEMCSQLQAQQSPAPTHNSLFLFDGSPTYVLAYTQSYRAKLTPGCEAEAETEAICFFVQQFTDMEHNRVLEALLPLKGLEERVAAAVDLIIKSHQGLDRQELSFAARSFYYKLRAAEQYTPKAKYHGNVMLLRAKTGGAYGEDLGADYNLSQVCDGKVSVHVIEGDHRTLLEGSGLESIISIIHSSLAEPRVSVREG

[8] = molecular target: T2, Fatty acid synthase; assay: FAS thioesterase domain inhibitors, dose response, biochemical, endpoint fluorescence intensity, uHTS hits (AID 624327); assay type: functional;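 further: fluorescence from hydrolysis of an O-methyl fluorescein acyl ester substrate by the enzyme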
[9] = inhibitors of clade B AD8 Env fusion, dose response, cell-based, cherry-pick (AID 652062); assay type: functional;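 further: luciferase signal from cell-cell fusion driven by HIV-1 clade B AD8 Env; potency is for inhibitors of fusion seen as a drop in luminescence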
[10] = inhibitors of HIV Env-driven cell fusion, dose response, cherry-pick (AID 652057); assay type: functional, cell-based
[11] = cytotoxicity toward DRD oncogenic fibroblasts, dose response, cell-based, non-viral oncogenic, luminescence (AID 1934); assay type: functional; details: Homo sapiens
[12] = system: BJ; assay: cells; assay type: functional, cell-based; details: Homo sapiens
[13] = molecular target: Paired box protein Pax-8 (Homo sapiens, UniProt Q06710); assay: inhibitors of PAX8-driven TPO luciferase reporter, dose response, RMG-I cells, cherry-pick (AID 687027); assay type: functional, cell-based;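 further: luciferase reporter driven by Pax8 target thyroperoxidase promoter measured by SteadyGlo luminescence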
[14] = system: BJ; assay: cytotoxicity toward BJ-TERT-LT-ST fibroblasts, dose response, cell-based, RAS-independent, luminescence (AID 1935); assay type: functional; details: Homo sapiens;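 further: BJ fibroblasts immortalized with TERT plus LT and ST oncogenes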
[15] = C. albicans growth with fluconazole, confirmation, fluorescence, retest (AID 2467); assay type: functional, cell-based
[16] = molecular target: Cytochrome P450 2C9 (Homo sapiens, UniProt P11712)
Chain of Cytochrome P450 2C9 (P11712 whole entry): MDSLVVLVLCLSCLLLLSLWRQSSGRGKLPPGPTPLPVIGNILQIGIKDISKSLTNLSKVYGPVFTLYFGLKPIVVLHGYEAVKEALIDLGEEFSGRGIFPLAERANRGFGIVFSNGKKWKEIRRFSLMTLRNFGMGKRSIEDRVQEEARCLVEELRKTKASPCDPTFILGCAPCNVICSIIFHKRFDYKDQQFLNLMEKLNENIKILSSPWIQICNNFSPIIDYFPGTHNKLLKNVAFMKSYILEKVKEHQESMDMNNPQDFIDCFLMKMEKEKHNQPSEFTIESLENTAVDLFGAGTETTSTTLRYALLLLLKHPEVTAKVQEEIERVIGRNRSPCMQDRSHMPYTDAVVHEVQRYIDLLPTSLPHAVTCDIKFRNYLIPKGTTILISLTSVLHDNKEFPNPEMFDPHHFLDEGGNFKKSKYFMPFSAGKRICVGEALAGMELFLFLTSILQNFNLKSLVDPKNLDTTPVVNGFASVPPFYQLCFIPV

[17] = molecular target: Cytochrome P450 2C19 (Homo sapiens, UniProt P33261); assay: Cytochrome panel assay with activity outcomes. Panel member name: p450-cyp2c19 Compounds with AC50 equal or less than 10 uM are considered active; assay type: functional; details: read-out: AC50
Chain of Cytochrome P450 2C19 (P33261 whole entry): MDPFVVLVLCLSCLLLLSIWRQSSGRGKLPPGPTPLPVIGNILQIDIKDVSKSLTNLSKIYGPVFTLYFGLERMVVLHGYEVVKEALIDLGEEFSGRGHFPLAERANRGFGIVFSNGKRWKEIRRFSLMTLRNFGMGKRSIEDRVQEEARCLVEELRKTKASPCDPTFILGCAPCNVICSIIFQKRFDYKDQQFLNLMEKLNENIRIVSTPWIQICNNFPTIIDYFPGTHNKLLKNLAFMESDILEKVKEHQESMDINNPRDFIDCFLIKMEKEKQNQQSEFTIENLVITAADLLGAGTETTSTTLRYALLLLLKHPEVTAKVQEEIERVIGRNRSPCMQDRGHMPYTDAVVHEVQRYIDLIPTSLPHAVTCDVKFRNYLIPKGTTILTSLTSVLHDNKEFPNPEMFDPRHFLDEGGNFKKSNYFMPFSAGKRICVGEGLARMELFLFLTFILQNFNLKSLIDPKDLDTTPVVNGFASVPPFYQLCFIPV

[18] = cells; assay type: functional, cell-based
[19] = cells; assay type: functional, cell-based; remark: listed apart in the source
[20] = molecular target: Cytochrome P450 3A4 (Homo sapiens, UniProt P08684);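 further: CYP3A4 tested as one member of a cytochrome P450 panel screen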

Structure (SMILES): CN(C)S(=O)(=O)c1ccc(Cl)c(NC(=O)CSc2nc3ccccc3c(=O)n2CCCN2CCOCC2)c1
EC50 [1]: 17.8 µM (active)
EC50 [2]: > 112 µM (not active)

IC50 [3]: 11 µM (active)
AC50 [4]: 0.228 µM (active)
IC50 [5]: 30.6 µM (active)
IC50 [6]: 24.3 µM (active)
Structure (SMILES): O=C1NN(c2ccccc2)C(=O)/C1=C/c1ccc(-c2cccc(C(=O)O)c2)o1

IC50 [7]: 3.42 µM (active)
IC50 [8]: 6.68 µM (active)
Structure (SMILES): Cc1ccc(S(=O)(=O)Nc2cccc(-c3ccc(N4CCCCCC4)nn3)c2)cc1

Structure (SMILES): C[C@H](CO)N1C[C@H](C)[C@H](CN(C)S(=O)(=O)c2cccs2)Oc2ccc(NC(=O)NC3CCCCC3)cc2CC1=O
AC50 [9]: 3.49 µM (active)
AC50 [10]: 1.19 µM (active)

Structure (SMILES): CCOc1ccccc1C1C2=C(O)OCC2=Nc2cc3c(cc21)OCO3 (stereo not given)
EC50 [11]: 0.468 µM (active)
EC50 [12]: 1.11 µM (inconclusive)
AC50 [13]: 2.15 µM (active)
EC50 [14]: 0.442 µM (active)
EC50 [15]: > 38 µM (not active)

Structure (SMILES): O=C(CSc1ccc(-c2ccco2)nn1)c1ccccc1
EC50 [1]: > 112 µM (not active)
EC50 [2]: > 112 µM (not active)

Structure (SMILES): CCNC(=O)C[C@@H]1CC[C@@H]2[C@@H](COc3ccc(NC(=O)Cc4cccs4)cc3C(=O)N2C)O1
AC50 [9]: 41.5 µM (active)

AC50 [16]: inconclusive
AC50 [17]: 3.16 µM (inconclusive)
Structure (SMILES): CC(C)C(=O)c1c(C(C)C)nn2ccccc12 [IBUDILAST]

Structure (SMILES): Cc1cc(O)nc(SCC(=O)Nc2nonc2C)n1
EC50 [18]: > 350 µM (not active)
EC50 [19]: > 350 µM (not active)

IC50 [7]: 9.93 µM (active)
IC50 [8]: 7.31 µM (active)
Structure (SMILES): CC1CCCC(C)N1C(=O)COC(=O)c1cc([N+](=O)[O-])ccc1N1CCOCC1 (stereo not given)

AC50 [20]: 28.2 µM (inconclusive)
AC50 [16]: inconclusive
Structure (SMILES): CC(=O)Nc1cc(S(=O)(=O)Nc2ccccc2)c(C)cc1C

IC50 [3]: 6.88 µM (active)
Structure (SMILES): COc1ccc2c(c1)c(=O)oc1c(C)c(OC(C)C(=O)N[C@@H](Cc3c[nH]c4ccc(O)cc34)C(=O)O)ccc12 (stereo not given in full)

IC50 [3]: 5.71 µM (active)
Structure (SMILES): C[n+]1ccccc1C1CCCC/C1=N\NC(N)=S (stereo not given)

IC50 [3]: 4.79 µM (active)
Structure (SMILES): O=C(COC(=O)c1ccc(S(=O)(=O)NCc2ccco2)cc1)Nc1ccc(Cl)cn1

IC50 [3]: 26.7 µM (active)
IC50 [6]: > 100 µM (active)
Structure (SMILES): N=C1/C(=C\c2ccc(Br)o2)C(=O)N=C2SC(CC(=O)N3CCCCC3)=NN12

Structure (SMILES): CN(CC(=O)Nc1ccccc1Br)C(=O)C(Cc1ccccc1)NC(=O)c1ccccc1 (stereo not given)
EC50 [1]: > 112 µM (not active)
EC50 [2]: > 112 µM (not active)

Structure (SMILES): COc1ccc(CCNC(=O)C[S+]([O-])Cc2nc(-c3ccc(C)cc3)oc2C)cc1OC (stereo not given)
EC50 [1]: > 112 µM (not active)
EC50 [2]: > 112 µM (not active)

Structure (SMILES): Oc1c(Br)c(Br)c(Br)c(Br)c1Br [PENTABROMOPHENOL]
IC50 [7]: 6.52 µM (active)
IC50 [8]: 6.27 µM (active)

Structure (SMILES): COc1ccc(CCNC(=O)CC(NC(=O)c2ccccc2Cl)c2ccccc2)cc1 (stereo not given)
EC50 [18]: > 350 µM (not active)
EC50 [19]: > 350 µM (not active)

Structure (SMILES): CCC(=O)N(C)CCc1cc2c(c(OC)c1/C=N/NC(=O)c1ccccc1O)OCO2
EC50 [1]: > 112 µM (not active)
EC50 [2]: > 112 µM (not active)

Structure (SMILES): Cc1cnc(C(=O)OCC(=O)Nc2ccc(Cl)cc2Cl)cn1
EC50 [1]: 14.8 µM (active)
EC50 [2]: > 112 µM (not active)

Structure (SMILES): Cc1ccc(C2SCCN2C(=O)c2ccc([N+](=O)[O-])cc2)cc1 (stereo not given)
EC50 [1]: > 112 µM (not active)
EC50 [2]: > 112 µM (not active)
